Experimental data: US5574059A, “Treating disorders mediated by vascular smooth muscle cell proliferation” (priority 1995, dated 1996)
Read-outs that look alike come from different tables or passages of the source.

What was measured:
I2 imidazoline receptors = assay: inhibition of 3H-idazoxan (5 nM) binding to rat aortic smooth muscle cell membranes; settings: Table 2; 3H-idazoxan 5 nM; rat aortic smooth muscle cell membranes; read-out: Ki
Method: Binding to I2 imidazoline receptors is determined by the following assay. Membranes are prepared from cultured cells for ligand binding as described in Regunathan, S., et al, Biochem. Pharmacol. 45, 1667-1675 (1993) and Regunathan, S., et al, J. Neurosci. Res. 34, 681-688 (1993) and the disclosure in these on this is incorporated herein by reference. In particular, harvested rat aortic smooth muscle cells are homogenized in Hepes-sucrose buffer (pH 7.4) with a Teflon-glass homogenizer and centrifuged at 1000 × g for 10 minutes. The pellets are suspended in ice-cold Tris-HCl buffer (pH 7.7) with 5mM ethylene diamine tetracetic acid and homogenized using a Polytron (Brinkman Instruments) for 10 seconds. The homogenate is centrifuged at 40,000 × g for 30 minutes to produce a membrane pellet. The membrane pellet is washed three times by resuspending in buffer and re-centrifuging. The washed pellet is suspended in fresh Tris-HCl buffer (pH 7.4) to provide approximately 100 μg protein per assay tube. Binding assays are performed in Tris-HCl buffer (pH 7.7) using 5 nM of […]. Non-specific binding is defined by 100 μM of unlabelled idazoxan which will inhibit the specific binding of ^3 H-idazoxan. Thus the binding remaining in the presence 100 μM of idazoxan is due to non-specific binding and this will be substracted from total binding to calculate the specific binding. Following incubation at 25° C. for 30 minutes, reaction is terminated by rapid vacuum filtration over Whatman GF/B filters and washed with 10 ml of ice-cold buffer. Filters are suspended in scintillation fluid and radioactivity counted in a liquid scintillation counter. Membrane protein is assayed by Coomassie Blue method (Pierce) using bovine serum albumin as standard.
Determination of inhibition constant (Ki) for each drug is determined as follows: The binding of ^3 H-idazoxan to membranes of vascular smooth muscle cells is determined in the presence of 0.1 nM to 100 μM concentrations of potential drug. The percent inhibition of specific binding of ^3 H-idazoxan by each concentration is calculated and plotted against concentration. The data is analyzed by non-linear curve fitting program, LIGAND and the IC50 value for each potential drug is calculated. The affinity for each drug (Ki) for I2 imidazoline receptors is calculated using the formula Ki =IC50 /1+L/Kd where L is the concentration of ^3 H-idazoxan used for binding and Kd is the dissociation constant for ^3 H-idazoxan for I2 imidazoline receptors. The dissociation constant (Kd) is determined by Scatchard analysis of the saturation binding of ^3 H-idazoxan using the formula [formula] where B and F are the amount of bound and free ligand, respectively, and Bmax is the number of binding sites.
Primary cultures of rat-aortic smooth muscle cells were prepared by a modification (described in Erlinge, Do, et al, Am. J. Physiol. 265, H1089-1097, 1993) of the method of Meyer-Lehnert and Schrier (Meyer-Lehnert, H., et al, Hypertension 13,350-361, 1989), the disclosure of these cited articles being incorporated herein by reference. Briefly, rats were killed by anesthetic overdose and the aorta were removed and incubated with collagenase (2 mg/ml) in Dulbecco's modified Eagle's minimum essential medium (DMEM). The vessel was stripped of adventitia, cut longitudinally and the intima scraped away. After further collagenase treatment, the remaining tissue was passed 20 times through 18 and 16 gauge needles. The resulting cell suspension was centrifuged at 500 × g for 5 minutes and resuspended in DMEM containing penicillin (100 units/ml), streptomycin (100 μg/ml), 2 mM L-glutamine and 10% fetal calf serum. The suspended cells were plated in T-75 flasks, cultured until confluent, and subcultured in 100 mm plates. The confluent cells were harvested and membranes were prepared. Cell viability was determined by trypan blue exclusion.

[1] = test system: rat aortic smooth muscle cells; assay: serum-stimulated proliferation, 3H-thymidine incorporation into DNA; format: cell-based; settings: for IC50: Rattus norvegicus, read-out: 3H-thymidine incorporated (IC50)
Method: Inhibition of serum-stimulated proliferation of rat aortic smooth muscle cells is determined as follows: The antiproliferative effect of potential drug is determined by measuring the incorporation of ^3 H-thymidine into cellular DNA. Exposure of quiescent vascular smooth muscle cell to serum, which contains many growth factors, results in a large increase in cellular proliferation as measured by ^3 H-thymidine incorported into DNA. The inhibitory effect of potential drug on serum-stimulated proliferation is tested by adding a drug before the addition of serum and determining if the serum-stimulated proliferation is reduced. […] In that event, antagonizing of the antiproliferative effect of idazoxan is determined by adding antagonist before the addition of idazoxan to serum-stimulated vascular smooth muscle cells.
In this experiment, the proliferation of vascular smooth muscle cells was determined by measuring DNA replication. The incorporation of ^3 H-thymidine into DNA was used to measure the replication of DNA as described in Erlinge, D., et al, Am. J. Physiol. 265, H1089-H1097 (1993) which is incorporated herein by reference.
Rat aortic smooth muscle cells prepared as described in In Vitro Example 1 were plated into 24-well plates at a density of about 30,000 cells/well in 10% fetal calf serum (FCS). After 48 hours, the cells were starved in 0.5% FCS for another 48 hours to decrease proliferation and induce quiescence. The medium was replaced by serum-free medium 24 hours prior to addition of drug (drugs are described below) and 10% fetal calf serum or only 10% fetal calf serum in the case of the control. The cells were then incubated for 24 hours and ^3 H-thymidine (1 μCi/well) was added at hour 20. At the end of the 24 hour period, the medium was aspirated and the cells were washed three times with phosphate-buffered saline and twice with ice-cold trichloroacetic acid. Fixed cells were then solubilized in 0.2M NaOH and sonicated. A 100 μl aliquot was used for scintillation counting.

[2] = Example I: patient with intermittent claudication, iliac artery plaques; format: in vivo, human; settings: over 30 days oral; idazoxan 50 and 75 mg/day, UK 14,304 125, naphazoline 125, cirazoline 75, agmatine 900 mg/day
From the text: A person presents with progressive symptoms of intermittent claudication in both legs.

[3] = Example II: patient with narrowing of right common carotid artery, balloon angiography; format: in vivo, human; settings: idazoxan 50 or 75 mg/day two weeks before and 3 months after balloon angiography; UK 14,304 125, cirazoline 60, naphazoline 125, agmatine 900 mg/day
Method: A person presents with a history of intermittent brief episodes of transient monocular blindness in the right eye associated with clumsiness and weakness of the left arm and leg. Angiography indicates substantial narrowing of the right common carotid artery. They are with treated with idazoxan at a dosage of 50 or 75 mg/day for two weeks preceding balloon angiography and for 3 months thereafter.

[4] = Example III: patient with coronary artery disease, angioplasty; format: in vivo, human; settings: idazoxan 50 mg/day continued for 3 months; substitutes, dose not stated
Method: A person presents with the onset of chest pain on exertion. […] Ten days before angioplasty, the patient is begun on 75 or 100 mg/day of idazoxan. […] Treatment with 50 mg/day idazoxan is continued for 3 months.

[5] = Example IV: patient with fibromuscular dysplasia of the renal artery, angioplasty; format: in vivo, human; settings: idazoxan 75 mg/day; UK 14,304 60, naphazoline 125, cirazoline 60, agmatine 900 mg/day
[6] = Example V: patient with Type I diabetes mellitus, overgrowth of retinal vessels; format: in vivo, human; settings: idazoxan 75 mg/day; UK 14,304 60, naphazoline 125, cirazoline 60, agmatine 900 mg/day
From the text: A person with Type I diabetes mellitus and maintained on insulin presents with progressive symptoms of loss of visual acuity bilaterally with evidence on opthalmascopic examination of overgrowth of retinal vessels and hemorrhages.

[7] = 10% fetal calf serum stimulated

Row | SMILES | Ki (I2 imidazoline receptors) [µM] | inhibition of vascular smooth muscle cell proliferation, in words [1, 7] | IC50 [1] [µM] | symptoms of intermittent claudication [2] | symptoms and restenosis of the vessel [3] | symptoms / restenosis after angioplasty [4] | re-elevation of pressure / restenosis of the renal artery [5] | progression and visual symptoms [6] | IC50 ([1]; 10% fetal calf serum stimulated, 24 h) [µM]
1 | NCCCCN=C(N)N [Agmatine, 4-(aminobutylguanidine)] | 0.24 ± 0.025 | weakly inhibited | 340 ± 29 | stabilization of symptoms | comparable results | comparable results, i.e., no restenosis | comparable results, i.e., no restenosis | comparable results, i.e., no restenosis | –
2 | Brc1c(NC2=NCCN2)ccc2nccnc12 [UK 14,304, 5-bromo-N-(4,5-dihydro-1-H-imidazol-2-yl)-6-quinoxalinamine] | 0.02 ± 0.0014 | potently inhibited | – | stabilization of symptoms | comparable results | comparable results, i.e., no restenosis | comparable results, i.e., no restenosis | comparable results, i.e., no restenosis | 15.6 ± 2.8
